Experimental data reported in patent US20150284362A1, “CARBAZOLE-CONTAINING AMIDES, CARBAMATES, AND UREAS AS CRYPTOCHROME MODULATORS” (ReSet Therapeutics, Inc., priority 2014, published 2015).

Assays:
[1] = test system: core clock gene mRNAs in liver; assay: Four day study, liver core clock gene mRNA, ICR mice; assay type: in vivo, mouse; details: 50 mg/kg PO BID 4 days, ZT6
Description: Male ICR mice (weighing 30-35 g), obtained from Charles River Laboratories (Hollister, Calif.), were used for the experiment following at least 3 days of acclimation. Mice were dosed with vehicle (WFI or 10% Kolliphor) or compound (50 mg/kg, dose volume 5 mL/kg, PO) for 4 days BID (twice a day), beginning in the afternoon of the first day. The last dose of compound or vehicle was administered on the morning of harvest. On the day of harvest (6 hours following the final dose), mice were euthanized by CO2 asphyxiation and 50 mg of liver tissue was excised and placed in a tube containing 500 μl of RNA later.
E.Z.N.A.® HP Total RNA Isolation Kits (R6812-01 and the protocol described in the Manual, Revised 2010) were utilized to prepare and isolate RNA from the liver samples. To prepare the RNA samples, 10-30 mg of sample was removed from RNA-Later and placed in a 1.5 ml microfuge tube. […] The cleared supernatant was transferred by pipetting to a DNA Clearance Column Pre-inserted in a 2 mL Collection Tube. The assembled column was centrifuged at 13,000×g for 1 minute, and the flow-through was saved. An equal volume (700 μl) of 70% ethanol was added to the lysate and mixed. The sample was then applied to a HiBind RNA spin column placed into a 2 ml collection tube, which was centrifuged at 10,000×g for 60 seconds at room temperature. RNA Wash Buffer I (250 μl) was added by pipetting directly onto a new HiBind RNA column inserted in a 2 ml collection tube. The assembled column was centrifuged at 10,000×g for 60 seconds. The RNA column was placed into a new 2 ml collection tube. […] The column with bound RNA was incubated at room temperature (25-30° C.) for 15 minutes. RNA Wash Buffer I (500 μl) was added to the column and placed on a bench top for 2 minutes. After centrifuging at 10,000×g for 60 seconds, discarding the flow-through, 500 μl of RNA Wash Buffer II was added and centrifuged at 10,000×g for 60 seconds. Another 500 μl of RNA Wash Buffer II was added and the column assembly was centrifuged at 10,000×g for 60 seconds. The column was centrifuged for 2 minutes at maximum speed to completely dry the HiBind matrix. The column was placed in a clean 1.5 ml microcentrifuge tube and 40-70 μl of molecular biology grade water is added. After sitting for 1 minute, the column was centrifuged for 2 minutes at maximum speed to elute the RNA. The isolated RNA was collected into the collection tube.
RediPlate 96 RiboGreen RNA Quantification Kit (Invitrogen) RediPlate standard curve was prepared by transferring 20 μl reconstituted RNA standard to a RediPlate well reconstituted in 180 μl RediPlate TE buffer. For liver RNAs prepared from 30-100 mg of tissue using a kit similar to the Omega Bio-Tek HP Total RNA Kit and eluted in RNAse-free water in a volume of 50 μl (microliters), 5 μl of the total RNA is diluted in 195 μl of RediPlate TE buffer (1:40 dilution of RNA), mix. […] Alternatively, one can use the FlexStation 3 with Ex 488 nm and Em 525 nm and a Cutoff of 515 nm.

[2] = test system: core clock gene mRNAs in liver; assay: Single dose at peak (ZT0) or nadir (ZT10) of Cry1, liver core clock gene mRNAs; assay type: in vivo, mouse; details: db/db mice; single dose 50 mg/kg at ZT0 or ZT10; liver 7.5 hours later
Description: For compounds that interact directly with the core clock mechanism, the time of dosing may be critical for maximizing their effects. […] The former (ZT0) is coincident with the peak of Cry1 and Bmal1 protein in mouse liver and the latter (ZT10) corresponds to the approximate nadir of Cry1 and Bmal1. Liver tissue was taken 7.5 hours later for each, and the samples were examined for core clock gene mRNAs by RT-qPCR.

With O=C1NCCN1CC(O)Cn1c2ccc(F)cc2c2cc(F)ccc21 (stereo not drawn) [Compound 72, 1-(3-(3,6-difluoro-9H-carbazol-9-yl)-2-hydroxypropyl)imidazolidin-2-one] as the molecule, how does the “Cry2 transcripts in liver” value [1] read?
Its value is “decrease”.

What about the “liver Per2 expression” value [1] of the same molecule?
The value was “suppression”.

What about the “impact on core clock gene mRNAs in liver, dosing at peak vs nadir” value [2] of the same molecule?
The value was “greater relative impact on the clock mRNAs at the peak compared to the nadir”.
